Experimental data: PMC10229078, “In vitro effects of lapachol and β-lapachone against Leishmania amazonensis” (Brazilian Journal of Medical and Biological Research, 2023)
Converted amounts (≈) assume the structure as drawn.

Columns and labels:
[1] = tested on: L. amazonensis promastigotes; assay: Externalized phosphatidylserine, annexin V-FITC/PI; type: cell-based, Leishmania amazonensis; settings: lapachol 76.62 µg/mL, β-lapachone 1.63 µg/mL; for Annexin labeling (AnV+, PI-): 4 h; for Annexin labeling (AnV+, PI-), change on longer incubation: 24 h
Procedure: […] After treatment, the cells were centrifuged (901 g for 10 min) at room temperature and washed in PBS. According to the manufacturer's instructions, annexin V-FITC and PI (Sigma-Aldrich) were added. Data were acquired using the BD FacsCalibur™ flow cytometer (FL1 vs FL2) and CellQuest Pro software, with a total of 10,000 events acquired for analysis of results.

[2] = tested on: amastigotes of L. (V.) braziliensis (MHOM/BR/94/H-3227); design: method as in ref 18 Teixeira et al.; settings: 50 µg/mL, ref 18 Teixeira et al.; cited from earlier work
[3] = tested on: L. amazonensis amastigotes; assay: Activity on intracellular amastigotes in peritoneal macrophages (infection index); settings: 24 h; for Inhibition of infection rate of amastigotes (infection reduction): vs untreated infected macrophages
Procedure: (§1) The activity of lapachol and β-lapachone on intracellular amastigotes was made on peritoneal macrophages (5×10^5 per well). Cells were seeded onto round glass coverslips within 24-well plates in RPMI 1640 medium and incubated for 2 h at 37°C in 5% CO2. After that, the proportion of 6 parasites (L. amazonensis) per macrophage were added, and cultures were incubated for 4 h at 37°C in 5% CO2. Free parasites were removed by washing with RPMI 1640 medium. The infected macrophages were incubated with lapachol (82.28, 41.14, and 20.57 µg/mL) and β-lapachone (3.26, 1.63, and 0.815 µg/mL) for 24 h at 37°C. After the incubation time, the coverslips were removed, washed, stained with Fast Panoptic, and fixed on glass slides with Entellan. […] The experiments were done twice in triplicate, and treated uninfected cells were used as the cytotoxicity control and non-treated infected cells were used as the positive control of infection. The number of intracellular amastigotes was determined by counting 200 macrophages by concentration in an optical microscope (binocular biological microscope, mod. BA310E LED, Motic, Spain). The infection index was calculated by multiplying the percentage of infected macrophages by the number of parasites per macrophages ([29]).

[4] = tested on: Peritoneal macrophages from BALB/c mice; assay: Macrophage cytotoxicity, XTT, peritoneal macrophages
Procedure: Peritoneal macrophages from BALB/c mice were obtained as described before and adjusted to 1×10^6 macrophages/mL and plated in 96-well culture plates (TPP™ test plate, Switzerland), followed by 2 h of incubation (5% CO2 at 37°C). […] Cultures were incubated for 24 h at 37°C in 5% CO2, and non-treated cultures were used as viability control. […] After 4 h of incubation in 5% CO2 at 37°C protected from light, the results were measured as absorbance, determined by spectrophotometry (450/620 nm filter, VersaMax™ ELISA microplate reader) ([28]). […] At least three experiments were performed in quadruplicate.

[5] = tested on: L. amazonensis promastigotes; assay: DNA fragmentation assay, agarose gel electrophoresis; type: cell-based, Leishmania amazonensis; settings: IC50/24 h (lapachol 76.62 µg/mL, β-lapachone 1.63 µg/mL)
Procedure: The presence of DNA fragmentation was evaluated by electrophoresis in agarose gel according to a previous study ([33]). L. amazonensis (1×10^6 promastigotes/mL) was incubated with the IC50 of compounds for 24 h. After validation of IC50 as mentioned above, pellets were re-suspended in digestion buffer (10 mM ethylenediamine tetraacetic acid [EDTA], 50 mM Tris-HCl [pH 8.0] and 0.5% sodium lauryl sulfate), to which 0.5 mg/mL proteinase K was added. The mixture was incubated for 3 h in […] and again for 1 h at 55°C in the presence of 0.1 mg/mL RNase A. DNA material was extracted by phenol/chloroform (1:1) treatment and was precipitated by adding 3 M sodium acetate and ice-cold ethanol (100%). After an overnight incubation at -20°C, the material was centrifuged (13270 g) for 30 min at 25°C temperature. Then, 2.5 volumes of ethanol (70%) were added to the pellet. The material was centrifuged (13270 g) for 15 min again and the pellet was collected, air dried, and re-suspended in Tris-EDTA buffer (50 µL, pH 8.0). DNA aliquots (10 µg) were electrophoresed on 2% agarose gel that contained ethidium bromide (0.5 µg/mL) using Tris-acetate-EDTA buffer (pH 8.0) for 45 min at 100 V and photographed under ultraviolet light. L. amazonensis untreated promastigotes were used as negative control of fragmentation (C-) and promastigotes treated with H2O2 as positive control (C+). […]

[6] = tested on: L. amazonensis amastigotes
Procedure: as §1

[7] = tested on: J774A.1 macrophages; assay: Macrophage cytotoxicity, XTT, J774A.1
[8] = tested on: Leishmania major promastigotes; design: method as in ref 24 Moreno et al.; settings: 48 h of incubation, ref 24 Moreno et al.; cited from earlier work
[9] = Macrophage cytotoxicity, XTT, J774A.1; settings: mouse, J774A.1 macrophages
[10] = Leishmania amazonensis, Macrophage, read-out: Inhibition of infection rate of amastigotes (infection reduction)

## 4-hydroxy-3-(3-methylbut-2-enyl)naphthalene-1,2-dione [lapachol]
[1]
  Annexin labeling (AnV+, PI-): 8.57%
  Annexin labeling (AnV+, PI-), change on longer incubation: not possible to observe the increase
[2]
  Inhibition of the infection rate of amastigotes: 88.8%
[3]; 20.57 µg/mL
  Inhibition of infection rate of amastigotes (infection reduction): 34.95%
[3]; 82.28 µg/mL
  Inhibition of infection rate of amastigotes (infection reduction): 83.11%
[4]; peritoneal macrophages, 24 h
  Murine macrophage cytotoxicity CC50: 41.14 ± 2.17 µg/mL
[5]
  DNA fragmentation: promoted DNA fragmentation
[6]
  inhibition: 57.6%
[7]; J774A.1, 24 h
  J774A.1 macrophage cytotoxicity CC50: 26.66 ± 8.69 µg/mL

## CC1(C)CCC2=C(O1)c1ccccc1C(=O)C2=O [β-lapachone, 2,2-dimethyl-3,4-dihydrobenzo[h]chromene-5,6-dione]
[1]
  Annexin labeling (AnV+, PI-): 9.03%
  Annexin labeling (AnV+, PI-), change on longer incubation: not possible to observe the increase
[8]
  IC50: 1.5 ± 0.7 µM
[3]; [10]
  inhibition at 0.815 µg/mL: 80.2%
  inhibition at 1.63 µg/mL: 83.2%
  inhibition at 3.26 µg/mL: 78.5%
[4]; murine macrophage CC50 / promastigote IC50, 24 h
  Selectivity index (SI CC50/IC50): 1.97
[4]; murine macrophage CC50 / promastigote LD50, 24 h
  Therapeutic selectivity index (TSI CC50/LD50): 4.94
[4]; murine macrophages
  times more selective than lapachol for Leishmania death (TSI): 9.15 times
  times more selective than lapachol for inhibiting the growth of Leishmania culture (SI): 3.65 times
[5]
  DNA fragmentation: promoted DNA fragmentation
[7]; J774A.1 macrophage CC50 / promastigote IC50, 24 h
  Selectivity index (SI CC50/IC50): 1.95
[7]; J774A.1 macrophage CC50 / promastigote LD50, 24 h
  Therapeutic selectivity index (TSI CC50/LD50): 4.89
[7]; J774A.1 macrophages
  times more selective than lapachol for Leishmania death (TSI): 14 times
  times more selective than lapachol for inhibiting the growth of Leishmania culture (SI): 5.6 times
[9]
  CC50 at 24 h: 3.18 ± 0.04 µg/mL (≈ 13.1 µM)
